Test results as given in patent US4218442A, “1-Epi-fortimicin A and derivatives” (Abbott Laboratories, priority 1979, dated 1980).
Where a name gives a salt, the structure may show the parent alone. Read-outs that look alike come from different tables or passages of the source.

Legend:
Experiment in all cases: MIC, two-fold agar dilution, Mueller-Hinton agar
Type in all cases: cell-based
[1] = system: Pseudomonas aeruginosa KY 8516; conditions: read-out: minimum inhibitory concentration (MIC)
Method: (§1) The in vitro antibiotic activity is determined by a two-fold dilution test using Mueller-Hinton agar, 10 ml per Petri plate. The inoculum of approximately 1×10^5 of the indicated test organism is delivered by the Steer's replicator. The test is incubated at 37° C. for 24 hours.

[2] = system: Streptococcus faecalis 10541; conditions: read-out: minimum inhibitory concentration (MIC)
Method: as §1

[3] = system: Klebsiella pneumoniae 10031; conditions: read-out: minimum inhibitory concentration (MIC)
Method: as §1

Serratia marcescens 4003 = conditions: read-out: minimum inhibitory concentration (MIC)
Method: as §1

[4] = system: Klebsiella pneumoniae KY 4262; conditions: read-out: minimum inhibitory concentration (MIC)
Method: as §1

[5] = system: Providencia stuartii 1577; conditions: read-out: minimum inhibitory concentration (MIC)
Method: as §1

Escherichia coli 76-2 = conditions: read-out: minimum inhibitory concentration (MIC)
Method: as §1

[6] = system: Pseudomonas aeruginosa 27853; conditions: read-out: minimum inhibitory concentration (MIC)
Method: as §1

[7] = system: Escherichia coli BL 3676(RES); conditions: read-out: minimum inhibitory concentration (MIC)
Method: as §1

[8] = system: Staphylococcus aureus Smith; conditions: read-out: minimum inhibitory concentration (MIC)
Method: as §1

[9] = system: Pseudomonas aeruginosa KY 8512; conditions: read-out: minimum inhibitory concentration (MIC)
Method: as §1

[10] = system: Pseudomonas aeruginosa BMH #10; conditions: read-out: minimum inhibitory concentration (MIC)
Method: as §1

[11] = system: Pseudomonas aeruginosa 209; conditions: read-out: minimum inhibitory concentration (MIC)
Method: as §1

Proteus mirabilis Fin #9 = conditions: read-out: minimum inhibitory concentration (MIC)
Method: as §1

Proteus rettgeri U-6333 = conditions: Providencia rettgeri, read-out: minimum inhibitory concentration (MIC)
Method: as §1

Shigella sonnei 9290 = conditions: 37° C., 24 hours, read-out: minimum inhibitory concentration (MIC)
Method: as §1

[12] = system: Enterobacter aerogenes 13048; conditions: read-out: minimum inhibitory concentration (MIC)
Method: as §1

Escherichia coli JUHL = conditions: read-out: minimum inhibitory concentration (MIC)
Method: as §1

Proteus vulgaris JJ = conditions: read-out: minimum inhibitory concentration (MIC)
Method: as §1

[13] = system: Salmonella typhimurium Ed. #9; conditions: Salmonella enterica, read-out: minimum inhibitory concentration (MIC)
Method: as §1

With `C[C@H](N)[C@@H]1CC[C@@H](N)[C@@H](O[C@@H]2[C@H](N)[C@H](O)[C@H](O)[C@@H](N(C)C(=O)CN)[C@H]2O)O1` [Ex. 13, 1-Epi-3-O-demethylfortimicin A tetrahydrochloride] the MIC ([1]; KY8516, Pseudomonas aeruginosa KY 8516, 37° C., 24 hours) was 25 µg/mL, the MIC ([2]; Enterococcus faecalis, Streptococcus faecalis 10541, 37° C., 24 hours) was 50 µg/mL and the MIC ([3]; Klebsiella pneumoniae 10031, 37° C., 24 hours) was 3.1 µg/mL. It also gave an MIC (Serratia marcescens 4003; Serratia marcescens 4003, 37° C., 24 hours) of 3.1 µg/mL, an MIC ([4]; KY4262, Klebsiella pneumoniae KY 4262, 37° C., 24 hours) of 6.2 µg/mL and an MIC ([5]; Providencia stuartii 1577, 37° C., 24 hours) of 6.2 µg/mL. The MIC (Escherichia coli 76-2; 762, Escherichia coli 76-2, 37° C., 24 hours) was 3.1 µg/mL, the MIC ([6]; Pseudomonas aeruginosa 27853, 37° C., 24 hours) was 6.2 µg/mL and the MIC ([7]; Escherichia coli BL 3676(RES), 37° C., 24 hours) was 25 µg/mL. For the same compound, the MIC ([8]; Staphylococcus aureus Smith, 37° C., 24 hours) was 0.78 µg/mL, the MIC ([9]; KY8512, Pseudomonas aeruginosa KY 8512, 37° C., 24 hours) was 6.2 µg/mL and the MIC ([10]; Pseudomonas aeruginosa BMH #10, 37° C., 24 hours) was 0.78 µg/mL. It also gave an MIC ([11]; Pseudomonas aeruginosa 209, 37° C., 24 hours) of 100 µg/mL, an MIC (Proteus mirabilis Fin #9; Proteus mirabilis Fin #9, 37° C., 24 hours) of 6.2 µg/mL and an MIC (Proteus rettgeri U-6333; U6333, Proteus rettgeri U-6333, 37° C., 24 hours) of 3.1 µg/mL. The MIC (Shigella sonnei 9290) was 12.5 µg/mL, the MIC ([12]; Klebsiella aerogenes, Enterobacter aerogenes 13048, 37° C., 24 hours) was 3.1 µg/mL and the MIC (Escherichia coli JUHL; Escherichia coli JUHL, 37° C., 24 hours) was 6.2 µg/mL. For the same compound, the MIC (Proteus vulgaris JJ; Proteus vulgaris JJ, 37° C., 24 hours) was 3.1 µg/mL and the MIC ([13]; Salmonella typhimurium Ed. #9, 37° C., 24 hours) was 3.1 µg/mL.

For `CO[C@H]1[C@@H](O)[C@@H](N)[C@@H](O[C@H]2O[C@H]([C@H](C)N)CC[C@H]2N)[C@H](O)[C@@H]1N(C)C(=O)CN` [Ex. 3, 1-Epi-fortimicin A tetrahydrochloride], the MIC ([1]; Pseudomonas aeruginosa, KY8516, 24 h) was 100 µg/mL, the MIC ([2]; Enterococcus faecalis, 10541, 24 h) was 100 µg/mL and the MIC ([3]; Klebsiella pneumoniae, 10031, 24 h) was 3.1 µg/mL. It also gave an MIC (Serratia marcescens 4003; Serratia marcescens, 4003, 24 h) of 3.1 µg/mL, an MIC ([4]; Klebsiella pneumoniae, KY4262, 24 h) of 6.2 µg/mL and an MIC ([5]; Providencia stuartii, 1577, 24 h) of 3.1 µg/mL. The MIC (Escherichia coli 76-2; Escherichia coli, 762, 24 h) was 6.2 µg/mL, the MIC ([6]; Pseudomonas aeruginosa, 27853, 24 h) was 50 µg/mL and the MIC ([7]; Escherichia coli, 24 h) was 50 µg/mL. It also gave an MIC ([8]; Staphylococcus aureus, 24 h) of 1.56 µg/mL, an MIC ([9]; Pseudomonas aeruginosa, KY8512, 24 h) of 25 µg/mL and an MIC ([10]; Pseudomonas aeruginosa, 24 h) of 0.78 µg/mL. It also gave an MIC ([11]; Pseudomonas aeruginosa, 209, 24 h) of 100 µg/mL, an MIC (Proteus mirabilis Fin #9; Proteus mirabilis, 24 h) of 12.5 µg/mL and an MIC (Proteus rettgeri U-6333; U6333, 24 h) of 3.1 µg/mL. The MIC (Shigella sonnei 9290) was 12.5 µg/mL, the MIC ([12]; Klebsiella aerogenes, 13048, 24 h) was 6.2 µg/mL and the MIC (Escherichia coli JUHL; Escherichia coli, 24 h) was 12.5 µg/mL. The MIC (Proteus vulgaris JJ; Proteus vulgaris, 24 h) was 12.5 µg/mL and the MIC ([13]; TYPHIMURIUM, 24 h) was 3.1 µg/mL.
